Data on two molecules can be found in PubChem BioAssay (NCI).

Test systems include CAKI-1 renal; HOP-92 NSCLC; MALME-3M melanoma; MDA-MB-435; NCI/ADR-RES ovarian; OVCAR-4 ovarian; PC-3 prostate; RPMI-8226 leukemia; SR leukemia; U251 CNS.
Common to all, as to experiment: growth of human tumour cells (NCI), 48 h

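Assay format: 96-well plates, 48-hour exposure. GI50: concentration for 50% inhibition of growth. TGI: total growth inhibition.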

Take `O=C(NCCc1ccccn1)OCc1nc2nc(Cl)nc(N3CCOCC3)c2[nH]1`: the GI50 with CAKI-1 renal is 1360 nM; with HOP-92 NSCLC it was 1150 nM; in the assay on MALME-3M melanoma it was 1620 nM; with MDA-MB-435, 1330 nM; with NCI/ADR-RES ovarian, 1440 nM; in the assay on OVCAR-4 ovarian, 1700 nM. Moreover, the GI50 in the assay on PC-3 prostate is 1700 nM; with RPMI-8226 leukemia it was 1620 nM; in the assay with SR leukemia it was 1970 nM; in the assay with U251 CNS it was 3390 nM. Besides, the TGI with CAKI-1 renal is 3040 nM; in the assay on HOP-92 NSCLC, 3810 nM; with MALME-3M melanoma, 3100 nM; in the assay on MDA-MB-435, 2780 nM; in the assay on NCI/ADR-RES ovarian, 6220 nM; in the assay with OVCAR-4 ovarian, 3850 nM. In addition, the TGI in the assay on PC-3 prostate was 3730 nM; in the assay with RPMI-8226 leukemia, 5630 nM; in the assay with SR leukemia, over 100000 nM; with U251 CNS it was 12200 nM.

With `Cc1nc(Nc2ccccn2)sc1C(=O)/C=C/c1ccc(Cl)cc1`, the GI50 with CAKI-1 renal was 460 nM; in the assay with HOP-92 NSCLC, 1210 nM; in the assay on MALME-3M melanoma, 734 nM; with MDA-MB-435, 201 nM; in the assay on NCI/ADR-RES ovarian, 340 nM; in the assay with OVCAR-4 ovarian, 778 nM. In addition, the GI50 was 368 nM with PC-3 prostate, 523 nM in the assay on RPMI-8226 leukemia, 518 nM in the assay on SR leukemia and 370 nM in the assay on U251 CNS. Moreover, the TGI in the assay on CAKI-1 renal is 13400 nM; in the assay with HOP-92 NSCLC, 31400 nM; with MALME-3M melanoma, 43800 nM; in the assay on MDA-MB-435, 515 nM; in the assay with NCI/ADR-RES ovarian it was over 100000 nM; in the assay on OVCAR-4 ovarian, over 100000 nM. Moreover, the TGI with PC-3 prostate is over 100000 nM; in the assay on RPMI-8226 leukemia it was over 100000 nM; in the assay on SR leukemia, over 100000 nM; in the assay with U251 CNS it was over 47300 nM.
